Assay results published in publication PMC8301926 (Biomolecules, 2021).

Assays:
[1] = tested on: recombinant human MAO-A (hMAO-A); parameters: method as in earlier work; conditions: ref 27 (Dittman et al., 2004); read-out: IC50, recombinant human MAO-A (literature); cited from earlier work
[2] = biological target: T1, recombinant human monoamine oxidase A (hMAO-A) (Homo sapiens, UniProt P21397); assay: hMAO-A enzyme kinetics (Lineweaver-Burk, Dixon, secondary plots); type: biochemical; conditions: for Ki: hMAO-A, from secondary plots; for Inhibition Type, hMAO-A: Lineweaver-Burk and Dixon plots
T1 sequence (P21397 1-527): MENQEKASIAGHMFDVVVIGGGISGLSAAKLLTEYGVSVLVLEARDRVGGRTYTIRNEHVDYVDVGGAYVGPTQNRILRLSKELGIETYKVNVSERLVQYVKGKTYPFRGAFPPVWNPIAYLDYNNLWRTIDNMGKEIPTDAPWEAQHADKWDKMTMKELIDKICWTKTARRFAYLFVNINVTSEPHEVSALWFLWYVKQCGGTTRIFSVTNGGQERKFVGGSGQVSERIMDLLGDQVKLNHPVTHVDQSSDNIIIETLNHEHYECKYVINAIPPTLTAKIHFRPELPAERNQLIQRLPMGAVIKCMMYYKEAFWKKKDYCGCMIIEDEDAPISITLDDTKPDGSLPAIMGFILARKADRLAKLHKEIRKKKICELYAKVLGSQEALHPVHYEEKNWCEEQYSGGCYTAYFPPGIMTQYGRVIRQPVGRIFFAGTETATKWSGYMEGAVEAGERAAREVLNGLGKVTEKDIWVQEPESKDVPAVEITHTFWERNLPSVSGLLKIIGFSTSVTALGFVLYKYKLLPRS

[3] = biological target: T2, human M3 muscarinic acetylcholine receptor (hM3R) (Homo sapiens, UniProt P20309); assay: M3 (h) functional GPCR assay, agonist effect, intracellular Ca2+; type: cell-based; conditions: 100 µM; % of control response to 1-µM acetylcholine; CHO cells
T2 construct: host or cells: CHO cells

[4] = parameters: method as in PMID 31943245; conditions: rats, cited from earlier work
[5] = biological target: T3, human M4 muscarinic acetylcholine receptor (hM4R) (Homo sapiens, UniProt P08173); assay: M4 (h) functional GPCR assay, antagonist effect, cAMP HTRF; type: cell-based; conditions: CHO
T3 construct: host or cells: CHO cells
T3 sequence (P08173 1-479): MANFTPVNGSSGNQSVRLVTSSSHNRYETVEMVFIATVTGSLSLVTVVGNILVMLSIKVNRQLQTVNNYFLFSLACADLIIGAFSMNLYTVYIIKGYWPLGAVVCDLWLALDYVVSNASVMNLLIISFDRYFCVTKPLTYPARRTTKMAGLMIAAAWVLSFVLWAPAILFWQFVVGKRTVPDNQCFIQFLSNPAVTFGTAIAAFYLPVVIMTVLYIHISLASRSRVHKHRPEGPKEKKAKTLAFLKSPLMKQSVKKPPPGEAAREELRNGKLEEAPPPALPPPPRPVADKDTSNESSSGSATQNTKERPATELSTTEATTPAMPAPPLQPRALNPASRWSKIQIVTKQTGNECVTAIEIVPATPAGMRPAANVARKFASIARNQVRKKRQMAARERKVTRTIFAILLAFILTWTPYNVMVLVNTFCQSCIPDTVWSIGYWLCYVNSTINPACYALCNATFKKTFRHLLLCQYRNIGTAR
Description: The cellular and nuclear receptor functional assays were carried out at Eurofins Cerep (Le Bois I’ Eveque, France) following the in-house protocols (catalog items G029-1262, G029-1474, G030-1658, G030-1659, G031-1243, G031-1244, G032-1670, G032-1671, G033-4217, and G033-4212). The experimental methods for the assays were as described in the previous reports and the general methodology is summarized in the Supplementary Information Table S1. Recombinant human Chinese hamster ovary (CHO) cells and rat basophilic leukemic (RBL) cells were transfected with the GPCR genes of interest (hM1R, hM2R, hM3R, hM4R, and hM5R). The functional assay provided the readouts based on the measurements of calcium ion mobilization (for the Gαq/11-coupled receptors) and cAMP level (for the Gαi/o-coupled receptors).
Stable CHO cells expressing the transfected cDNA of human M2 receptors were suspended in a medium containing HBSS buffer complemented with 20-mM HEPES buffer (pH 7.4) and 500-µM IBMX, whereas the stable human M4 receptor cloned CHO cells were distributed in HBSS buffer with 20-mM HEPES/NaOH (pH 7.4), 70-mM NaCl, 5.33-mM KCl, 1.25-mM CaCl2, 0.5-mM MgCl2, 0.41-mM MgSO4, 0.441-mM KH2PO4, 0.3-mM Na2HPO4, 0.1% glucose, and 500-µM IBMX. […] The cAMP level was calculated as the ratio of the signal measured at 665 nm to that measured at 620 nm. […]
Assay Source Stimulus Incubation Measured Detection References […]

[6] = biological target: T4, human M1 muscarinic acetylcholine receptor (hM1R) (Homo sapiens, UniProt P11229); assay: M1 (h) functional GPCR assay, antagonist effect, intracellular Ca2+; type: cell-based; conditions: CHO
T4 construct: host or cells: CHO cells
T4 sequence (P11229 whole entry): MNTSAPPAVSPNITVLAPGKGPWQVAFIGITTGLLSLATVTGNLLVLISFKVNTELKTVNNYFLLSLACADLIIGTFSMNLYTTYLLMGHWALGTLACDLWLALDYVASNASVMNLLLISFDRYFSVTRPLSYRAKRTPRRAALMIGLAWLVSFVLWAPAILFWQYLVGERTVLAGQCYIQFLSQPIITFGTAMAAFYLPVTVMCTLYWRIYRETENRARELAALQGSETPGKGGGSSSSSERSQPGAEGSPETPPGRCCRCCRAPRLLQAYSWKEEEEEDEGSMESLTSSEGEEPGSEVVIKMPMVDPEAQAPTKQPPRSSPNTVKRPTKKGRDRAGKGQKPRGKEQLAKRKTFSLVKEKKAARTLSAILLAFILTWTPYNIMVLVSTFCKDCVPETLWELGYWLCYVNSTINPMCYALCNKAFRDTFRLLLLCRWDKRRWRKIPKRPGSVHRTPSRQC

T2 sequence (P20309 whole entry): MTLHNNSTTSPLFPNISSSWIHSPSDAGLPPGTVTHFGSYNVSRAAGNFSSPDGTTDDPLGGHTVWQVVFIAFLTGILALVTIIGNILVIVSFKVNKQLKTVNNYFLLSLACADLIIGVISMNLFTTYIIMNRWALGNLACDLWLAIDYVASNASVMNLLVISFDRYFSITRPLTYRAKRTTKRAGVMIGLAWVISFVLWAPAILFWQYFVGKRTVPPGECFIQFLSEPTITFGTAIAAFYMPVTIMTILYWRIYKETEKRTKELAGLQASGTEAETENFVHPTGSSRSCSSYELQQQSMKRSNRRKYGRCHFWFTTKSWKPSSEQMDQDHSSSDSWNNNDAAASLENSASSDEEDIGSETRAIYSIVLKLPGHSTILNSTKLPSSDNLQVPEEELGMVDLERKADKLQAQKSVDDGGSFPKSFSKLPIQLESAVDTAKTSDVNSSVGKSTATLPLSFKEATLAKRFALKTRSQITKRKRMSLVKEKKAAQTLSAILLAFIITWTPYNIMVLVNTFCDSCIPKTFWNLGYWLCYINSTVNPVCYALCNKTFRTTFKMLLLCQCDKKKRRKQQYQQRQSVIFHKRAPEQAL

Cc1coc2c1C(=O)C(=O)c1c-2ccc2c(C)cccc12 [Tanshinone I]
IC50 [1]: 80 µM | Ki ([2]; Kic): 1.69 ± 0.19 µM | Ki ([2]; Kiu): 4.65 ± 0.16 µM | Inhibition Type, hMAO-A [2]: Mixed | Inhibition Type, hMAO-A ([2]; listed as 1): mixed-mode | % Stimulation, M3 [3]: −2.3 ± 0.21% | tissue distribution ([4]; after oral administration): distribution of 1 into the brain | half-life ([4]; oral administration, among tanshinones 1, 2, 3, and Dtan I): most extended half-life | inhibition at 100 µM [5]: 56.1 ± 2.4% | inhibition at 100 µM [6]: 13.8 ± 1.98%
